This is an account of results in patent US8802664B2 (Bioproject, priority 2010, dated 2014).

Where only a bound is given, the exact number is not on record here.

The target in the first test is T1, human H4 receptor (Homo sapiens, UniProt Q9H3N8).
T1 construct: expressed in transfected cells
T1 sequence (Q9H3N8 whole entry): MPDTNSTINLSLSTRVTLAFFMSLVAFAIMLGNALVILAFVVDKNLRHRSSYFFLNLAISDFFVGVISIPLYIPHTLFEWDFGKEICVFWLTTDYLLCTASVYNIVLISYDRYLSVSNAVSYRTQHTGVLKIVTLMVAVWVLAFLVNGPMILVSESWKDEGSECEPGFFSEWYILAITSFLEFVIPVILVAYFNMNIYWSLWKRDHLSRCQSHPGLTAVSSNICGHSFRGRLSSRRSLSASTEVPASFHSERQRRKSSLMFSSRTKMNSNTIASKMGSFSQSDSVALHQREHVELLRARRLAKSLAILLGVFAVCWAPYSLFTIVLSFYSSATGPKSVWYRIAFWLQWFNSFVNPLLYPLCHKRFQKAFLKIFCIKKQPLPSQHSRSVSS
As to the kind of experiment: [3H]Histamine binding on membranes of CHO cells stably expressing human H4 receptor.
Details: not given
In outline: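 First, thawed CHO membranes carrying human H4 were diluted to 20 μg protein per well in pH 7.4 Tris/EDTA buffer. Next, incubation was ended by rapid filtration through PEI-treated GF/B filters followed by cold rinses. Finally, retained radioactivity was counted; 10 μM JNJ 7777120 marked nonspecific binding.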
`CN1CCC(OC(c2ccc3c(c2)OC(F)(F)O3)c2nc3ccccc3[nH]2)CC1` (stereo not drawn) [Example 521]: the Ki or IC50 activity class was < 1000 nM.

Turning to `COc1cccc(-c2cccc(C(OC3CCN(C)CC3)c3nc4ccccc4s3)c2)c1` (stereo not drawn) [Example 99, 2-[(3′-methoxybiphenyl-3-yl)(1-methylpiperidin-4-yloxy)methyl]benzothiazole], the Ki or IC50 activity class is < 300 nM.

Take `CN1CCC(OC(c2cccc(SCCO)c2)c2nc3ccccc3s2)CC1` (single isomer, unassigned) [Example 229, 2-{3-[benzothiazol-2-yl(1-methylpiperidin-4-yloxy)methyl]phenylsulfanyl}ethanol]: the Ki or IC50 activity class was < 30 nM.

For `CN1CCC(NC(c2cccc(-c3ccccc3)c2)c2nc3ccccc3s2)CC1` (stereo not drawn) [Example 102, (benzothiazol-2-ylbiphenyl-3-ylmethyl)(1-methylpiperidin-4-yl)amine], the Ki or IC50 activity class was < 30 nM.

Turning to `CN1CCC(OC(c2cccc(N3CC4CC(F)CC4C3)c2)c2nc3ccccc3s2)CC1` (stereo not drawn) [Example 492], the Ki or IC50 activity class was < 1000 nM.

For the compound `CN1CCC(OC(c2cccc(CCCCNC(=N)N)c2)c2nc3ccccc3[nH]2)CC1` (stereo not drawn) [Example 308, N-(4-{3-[(1H-benzimidazol-2-yl)(1-methylpiperidin-4-yloxy)methyl]phenyl}butyl)guanidine], the Ki or IC50 activity class was < 300 nM.

`CN1CCC(OC(c2cccc(C3=CCNCC3)c2)c2nc3ccccc3[nH]2)CC1` (stereo not drawn) [Example 338, 2-{(1-methylpiperidin-4-yloxy)[3-(1,2,3,6-tetrahydro-pyridin-4-yl)phenyl]methyl}-1H-benzimidazole]: the Ki or IC50 activity class was < 300 nM.

Turning to `CN1CCC(OC(c2cccc(C=C3NC(=N)NC3=O)c2)c2nc3ccccc3[nH]2)CC1` (stereo not drawn) [Example 505, 5-{3-[(1H-benzimidazol-2-yl)(1-methylpiperidin-4-yloxy)methyl]benzylidene}-2-iminoimidazolidin-4-one], the Ki or IC50 activity class was < 1000 nM.

For the compound `CSc1cccc(-c2cccc(C(OC3CCN(C)CC3)c3nc4ccccc4[nH]3)c2)c1` (stereo not drawn) [Example 116, 2-[(1-methylpiperidin-4-yloxy)(3′-methylsulfanylbiphenyl-3-yl)methyl]-1H-benzimidazole], the Ki or IC50 activity class is < 300 nM.

As to `CN1CCC(OC(c2cccc(CCCCN)c2)c2nc3ccccc3[nH]2)CC1` (stereo not drawn) [Example 293, 4-{3-[(1H-benzimidazol-2-yl)(1-methylpiperidin-4-yloxy)methyl]phenyl}butylamine], the Ki or IC50 activity class is < 300 nM.

For the compound `CN1CCC(OC(c2cccc(C=CCCCO)c2)c2nc3ccccc3[nH]2)CC1` (stereo not drawn) [Example 389, 5-{3-[(1H-benzimidazol-2-yl)(1-methylpiperidin-4-yloxy)methyl]phenyl}pent-4-en-1-ol], the Ki or IC50 activity class was < 300 nM.

Consider `Cc1cccc(C(NC2CCN(C)CC2)c2nc3ccccc3[nH]2)c1` (stereo not drawn) [Example 84, [(1H-benzimidazol-2-yl)(m-tolyl)methyl](1-methylpiperidin-4-yl)amine], for which the Ki or IC50 activity class was < 1000 nM.

Take `Cc1ccc(C(OC2CCN(C)CC2)c2nc3ccccc3[nH]2)c(F)c1` (stereo not drawn) [Example 513]: the Ki or IC50 activity class was < 30 nM.

`CN1CCC(OC(c2nc3ccccc3[nH]2)c2cc(OC(F)(F)F)ccc2Cl)CC1` (stereo not drawn) [Example 524]: the Ki or IC50 activity class was < 300 nM.

Take `CN1CCC(OC(c2cccc(C#CCCCN)c2)c2nc3ccccc3s2)CC1` (stereo not drawn) [Example 287, 5-{3-[benzothiazol-2-yl(1-methylpiperidin-4-yloxy)methyl]phenyl}pent-4-ynylamine]: the Ki or IC50 activity class is < 30 nM.

Turning to `CN1CCC(OC(c2cccc(OCCNCC(=O)OC(C)(C)C)c2)c2nc3ccccc3s2)CC1` (stereo not drawn) [Example 370, (2-{3-[benzothiazol-2-yl(1-methylpiperidin-4-yloxy)methyl]phenoxy}ethylamino)acetic acid tert-butyl ester], the Ki or IC50 activity class is < 1000 nM.

As for `Cc1ccc(C(OC2CCN(C)CC2)c2nc3ccccc3o2)c(F)c1` (stereo not drawn) [Example 545], the Ki or IC50 activity class was < 300 nM.

Take `CN1CCC(OC(c2cccc(OS(=O)(=O)C(F)(F)F)c2)c2nc3ccccc3s2)CC1` (stereo not drawn) [Example 71, trifluoromethanesulfonic acid 3-[benzothiazol-2-yl(1-methylpiperidin-4-yloxy)methyl]phenyl ester]: the Ki or IC50 activity class was < 300 nM.

Regarding `CN1CCC(OC(c2cccc(C=CCN)c2)c2nc3ccccc3[nH]2)CC1` (stereo not drawn) [Example 488], the Ki or IC50 activity class was < 1000 nM.

For the compound `CN1CCC(OC(c2cccc(C3=CCN(C(=N)N)CC3)c2)c2nc3ccccc3[nH]2)CC1` (stereo not drawn) [Example 353, 4-{3-[(1H-benzimidazol-2-yl)(1-methylpiperidin-4-yloxy)methyl]phenyl}-3,6-dihydro-2H-pyridine-1-carboxamidine], the Ki or IC50 activity class was < 300 nM.

`CN1CCC(OC(c2cccc(SCC(=O)NCCN)c2)c2nc3cc(F)ccc3[nH]2)CC1` (stereo not drawn) [Example 459]: the Ki or IC50 activity class is < 30 nM.

In the case of `CN1CCC(OC(c2cccc(OCc3cccc(N)c3)c2)c2nc3ccccc3s2)CC1` (stereo not drawn) [Example 228, 3-{3-[benzothiazol-2-yl(1-methylpiperidin-4-yloxy)methyl]phenoxymethyl}phenylamine], the Ki or IC50 activity class is < 30 nM.

On to `CN1CCC(OC(c2cccc(CCCCCCNC(=N)N)c2)c2nc3ccccc3s2)CC1` (stereo not drawn) [Example 363, N-(6-{3-[benzothiazol-2-yl(1-methylpiperidin-4-yloxy)methyl]phenyl}hexyl)guanidine], for which the Ki or IC50 activity class was < 300 nM.

On to `CN1CCC(OC(c2cc(C(F)(F)F)cc(C(F)(F)F)c2)c2nc3ccccc3[nH]2)CC1` (stereo not drawn) [Example 547], for which the Ki or IC50 activity class is < 1000 nM.

As for `CN1CCC(OC(c2cccc(OCc3ccccn3)c2)c2nc3ccccc3s2)CC1` (stereo not drawn) [Example 283, 2-{(1-methylpiperidin-4-yloxy)[3-(pyridin-2-ylmethoxy)phenyl]methyl}benzothiazole], the Ki or IC50 activity class is < 30 nM.

With `CN1CCC(OC(c2cccc(-c3cccc(N)c3)c2)c2nc3ccccc3[nH]2)CC1` (stereo not drawn) [Example 87, 3′-[(1H-benzimidazol-2-yl)(1-methylpiperidin-4-yloxy)methyl]biphenyl-3-ylamine], the Ki or IC50 activity class was < 300 nM.

For `CC(=O)COCc1cccc(C(OC2CCN(C)CC2)c2nc3ccccc3s2)c1` (stereo not drawn) [Example 270, 1-{3-[benzothiazol-2-yl(1-methylpiperidin-4-yloxy)methyl]benzyloxy}propan-2-one], the Ki or IC50 activity class was < 1000 nM.

As to `CC(O)COCC#Cc1cccc(C(OC2CCN(C)CC2)c2nc3ccccc3s2)c1` (stereo not drawn) [Example 276, 1-(3-{3-[benzothiazol-2-yl(1-methylpiperidin-4-yloxy)methyl]phenyl}prop-2-ynyloxy)-propan-2-ol], the Ki or IC50 activity class was < 30 nM.

Take `CN1CCC(OC(c2cccc(C3CCN(C(=N)N)CC3)c2)c2nc3ccccc3[nH]2)CC1` (stereo not drawn) [Example 394, 4-{3-[(1H-benzimidazol-2-yl)(1-methylpiperidin-4-yloxy)methyl]phenyl}piperidine-1-carboxamidine]: the Ki or IC50 activity class was < 1000 nM.

Consider `COCCn1c(C(OC2CCN(C)CC2)c2cccc(C#CCCCCN)c2)nc2ccccc21` (stereo not drawn) [Example 501], for which the Ki or IC50 activity class was < 300 nM.

In the case of `CN1CCC(OC(c2nc3cc(F)ccc3[nH]2)c2cc(OC(F)(F)F)ccc2F)CC1` (stereo not drawn) [Example 509], the Ki or IC50 activity class was < 30 nM.

For `CN1CCC(COC(c2cccc(C#CCCCN)c2)c2nc3cc(F)ccc3[nH]2)C1` (stereo not drawn) [Example 462], the Ki or IC50 activity class is < 300 nM.

Turning to `CN1CCC(OC(c2nc3ccccc3s2)c2ccccc2Cl)CC1` (stereo not drawn) [Example 281, 2-[(2-Chlorophenyl)(1-methylpiperidin-4-yloxy)methyl]benzothiazole], the Ki or IC50 activity class is < 1000 nM.

Turning to `CN1CCC(OC(c2cccc(OCc3ccco3)c2)c2nc3ccccc3s2)CC1` (stereo not drawn) [Example 267, 2-[[3-(furan-2-ylmethoxy)phenyl](1-methylpiperidin-4-yloxy)methyl]benzothiazole], the Ki or IC50 activity class was < 30 nM.

Turning to `CN1CCC(OC(c2cccc(C#CCN3C(=O)c4ccccc4C3=O)c2)c2nc3ccccc3[nH]2)CC1` (stereo not drawn) [Example 189, 2-(3-{3-[(1H-benzimidazol-2-yl)(1-methylpiperidin-4-yloxy)methyl]phenyl}prop-2-ynyl)isoindole-1,3-dione], the Ki or IC50 activity class was < 300 nM.

For `Nc1ccc(C(OC2CCNCC2)c2nc3ccccc3[nH]2)cc1` (stereo not drawn) [Example 456, 4-[(1H-benzimidazol-2-yl)(piperidin-4-yloxy)methyl]aniline], the Ki or IC50 activity class was < 1000 nM.

`CN1CCC(OC(c2cccc(N3CC(O)C3)c2)c2nc3ccccc3s2)CC1` (stereo not drawn) [Example 403, 1-{3-[benzothiazol-2-yl(1-methylpiperidin-4-yloxy)methyl]phenyl}azetidin-3-ol]: the Ki or IC50 activity class is < 300 nM.

Turning to `CN1CCC(OC(c2cccc(SCCCc3cnc[nH]3)c2)c2nc3ccccc3[nH]2)CC1` (stereo not drawn) [Example 398, 2-[{3-[3-(3H-imidazol-4-yl)propylsulfanyl]phenyl}(1-methylpiperidin-4-yloxy)methyl]-1H-benzimidazole], the Ki or IC50 activity class was < 300 nM.

For `CN1CCC(OC(c2nc3ccccc3[nH]2)c2cc(C#CCCCCN=C(c3ccccc3)c3ccccc3O)ccc2F)CC1` (stereo not drawn) [Example 562, 2-[(6-{3-[(1H-benzimidazol-2-yl)(1-methylpiperidin-4-yloxy)methyl]-4-fluorophenyl]hex-5-ynylimino)phenylmethyl}phenol], the Ki or IC50 activity class is < 30 nM.

Consider `CN1CCC(OC(c2nc3ccccc3[nH]2)c2cc(C#CCCCCN)ccc2F)CC1` (stereo not drawn) [Example 557, 6-{3-[(1H-benzimidazol-2-yl)(1-methylpiperidin-4-yloxy)methyl]-4-fluorophenyl}hex-5-ynylamine], for which the Ki or IC50 activity class is < 30 nM.

The test is the same for the next values; noted with them: human H4 receptor; evaluated in the GTPγ[35S] assay or in the [3H]histamine binding assay (not stated which per compound); Ki or IC50 class.
Consider `CN1CCC(OC(c2cccc(N3CCC(F)C3)c2)c2nc3ccccc3s2)CC1` (stereo not drawn) [Example 454], for which the Ki or IC50 activity class is < 30 nM.

In the case of `CN1CCC(OC(c2cccc(CCCNC(=N)N)c2)c2nc3ccccc3[nH]2)CC1` (stereo not drawn) [Example 321, N-(3-{3-[(1H-benzimidazol-2-yl)(1-methylpiperidin-4-yloxy)methyl]phenyl}propyl)guanidine], the Ki or IC50 activity class is < 30 nM.
